Like-named read-outs stand apart in the source and are kept apart here.

The results in this text go back to US20250115597A1, “TYK2 INHIBITORS AND COMPOSITIONS AND METHODS THEREOF” (LYNK PHARMACEUTICALS CO. LTD., priority 2021, published 2025).

For data set [1], the target named is T1, Ba/F3-FL-TYK2-P760L cells (Homo sapiens, UniProt P29597, P760L, cells depend on it).
T1 construct: BaF3-FL-T2P760L (nM)
The experiment in a line: Anti-proliferative assay, Ba/F3-FL-TYK2-P760L cells (Cell-Titer Glo). The note with it: 72 h, read-out: BaF3-FL-T2P760L IC50. In kind it is cell-based. The essentials:
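Compound exposure ran 72 h at 37 °C in 5% CO2 across nine 3-fold concentrations from a 20 μM top dose, added 24 h after seeding 2000 cells/well.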

Data set [2] is described as follows: Microsomal metabolic stability assay. In kind it is in vitro ADME. Conditions: pH 7.4, 0.5 mg/mL protein, 1 μM compound. As to the method: Microsomal Metabolic Stability Assay
Microsomes were pre-incubated with test compound or control compounds for 5 min at 37° C. in 100 mM potassium phosphate buffer, pH 7.4, 1.0 mM EDTA. The reaction was initiated by addition of 15 μL of the NADPH regenerating system to 30 μL of each incubation mixture per time point. The final incubation condition was composed of 0.5 mg/mL microsomal protein, 1 μM test article/positive control, 2 mM NADPH. The 0-minute samples were prepared by addition of a 30 μL aliquot of each incubation mixture to 135 μL quench reagent to precipitate proteins. And then a 15 μL aliquot of the NADPH regenerating system was added. At 5, 15, 30 and 45 minutes, the reaction will be stopped by the addition of cold acetonitrile solution containing internal standard. The samples taken at all time points were centrifuged at 5000×g for 15 minutes. 50 μL of supernatant are taken into 96-well assay plates pre-added with 50 μL ultrapure water, and then analyzed by LC/MS/MS.
Concentrations of test articles, control compounds in the samples were determined by using LC/MS/MS method. Plotting of the chromatograms and peak area integrations are carried out by Analyst (AB Sciex).
n the determination of the in vitro elimination constant (ke) of the control compounds, the analyte/internal standard peak area ratios will be converted to percentage remaining (% Remaining) with the following equation: […]
The slope was measured by the natural logarithm of the percentage of the residual compound and time, T1/2 was calculated according to the following formula.

Where [3] appears, read: dog liver microsomes, read-out: Dog LM Clint.
Where [4] appears, read: dog liver microsomes, read-out: Dog LM T½.
The mark [5] stands for this setting: human liver microsomes, read-out: Human LM Clint.
The mark [6] stands for this setting: human liver microsomes, read-out: Human LM T½.
The mark [7] stands for this setting: rat liver microsomes, read-out: Rat LM Clint.
Setting [8] is: rat liver microsomes, read-out: Rat LM T½.

T1 sequence (P29597 whole entry P760L): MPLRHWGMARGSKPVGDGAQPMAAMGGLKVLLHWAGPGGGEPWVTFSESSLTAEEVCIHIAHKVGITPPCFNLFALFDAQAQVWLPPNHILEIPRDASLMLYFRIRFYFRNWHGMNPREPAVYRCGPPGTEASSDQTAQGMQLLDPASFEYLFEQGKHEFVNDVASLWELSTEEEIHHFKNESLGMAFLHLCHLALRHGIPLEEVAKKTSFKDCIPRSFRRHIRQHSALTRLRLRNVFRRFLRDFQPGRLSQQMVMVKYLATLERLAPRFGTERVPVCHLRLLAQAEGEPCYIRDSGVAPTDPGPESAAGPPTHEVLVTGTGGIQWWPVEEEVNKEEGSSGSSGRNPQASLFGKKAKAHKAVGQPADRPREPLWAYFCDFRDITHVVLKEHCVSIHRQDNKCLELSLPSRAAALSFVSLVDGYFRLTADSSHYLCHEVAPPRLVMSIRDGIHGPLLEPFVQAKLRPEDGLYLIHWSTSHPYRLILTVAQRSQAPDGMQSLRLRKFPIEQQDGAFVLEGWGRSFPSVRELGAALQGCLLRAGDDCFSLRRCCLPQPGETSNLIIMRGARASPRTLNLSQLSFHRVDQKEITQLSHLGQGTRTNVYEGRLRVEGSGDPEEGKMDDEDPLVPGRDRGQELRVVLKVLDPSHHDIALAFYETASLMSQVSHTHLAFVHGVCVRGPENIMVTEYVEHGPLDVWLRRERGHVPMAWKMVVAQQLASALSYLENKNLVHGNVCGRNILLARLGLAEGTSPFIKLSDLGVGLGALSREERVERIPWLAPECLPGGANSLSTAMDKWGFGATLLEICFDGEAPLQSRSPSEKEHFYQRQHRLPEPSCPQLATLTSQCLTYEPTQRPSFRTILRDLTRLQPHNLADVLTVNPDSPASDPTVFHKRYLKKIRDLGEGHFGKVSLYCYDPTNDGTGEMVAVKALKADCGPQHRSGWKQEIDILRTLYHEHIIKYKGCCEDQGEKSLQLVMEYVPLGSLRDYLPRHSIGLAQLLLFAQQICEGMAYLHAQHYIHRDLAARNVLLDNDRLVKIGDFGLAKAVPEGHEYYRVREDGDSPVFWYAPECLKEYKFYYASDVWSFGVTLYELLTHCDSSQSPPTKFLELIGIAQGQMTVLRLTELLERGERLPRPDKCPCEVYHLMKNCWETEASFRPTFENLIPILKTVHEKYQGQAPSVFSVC

For the molecule `[2H]C([2H])([2H])NC(=O)c1nnc2cc1Nc1cc(cc(-c3ncn(C)n3)c1OC)CN(C)Cc1nc(ccc1F)N2` [Example 72, 18-Fluoro-10-methoxy-N-(methyl-d3)-15-methyl-11-(1-methyl-1H-1,2,4-triazol-3-yl)-2,4,5,8,15,21-hexaazatetracyclo[15.3.1.1^{3,7}.1^{9,13}]tricosa-1(20),3,5,7(23),9(22),10,12,17(21),18-nonaene-6-carboxamide], in data set [1], the GI50 worked out at 249 nM. Besides, the microsomal CLint at 1 μM in data set [2] (setting [3]) is 16.2 µL/min/mg; in data set [2] (setting [5]), 16.9 µL/min/mg; in data set [2] (setting [7]) it was 87 µL/min/mg. For the same molecule, the half-life at 1 μM in data set [2] (setting [4]) stood at 85.6 min; in data set [2] (setting [6]), 82.2 min; in data set [2] (setting [8]) it was 15.9 min.

Regarding `[2H]C([2H])([2H])NC(=O)c1nnc2cc1Nc1cc(cc(-c3ccn(C)n3)c1OC)COCc1nc(ccc1F)N2` [Example 74, 18-Fluoro-10-methoxy-N-(methyl-d3)-11-(1-methyl-1H-pyrazol-3-yl)-15-oxa-2,4,5,8,21-pentaazatetracyclo[15.3.1.1^{3,7}.1^{9,13}]tricosa-1(20),3,5,7(23),9(22),10,12,17(21),18-nonaene-6-carboxamide], the GI50 in data set [1] was 93.5 nM. In addition, the microsomal CLint at 1 μM worked out at 108 µL/min/mg in data set [2] (setting [3]), 17.5 µL/min/mg in data set [2] (setting [5]) and 161 µL/min/mg in data set [2] (setting [7]). The half-life at 1 μM in data set [2] (setting [4]) amounted to 12.9 min; in data set [2] (setting [6]), 79.4 min; in data set [2] (setting [8]) it was 8.61 min.

On to `[2H]C([2H])([2H])NC(=O)c1nnc2cc1Nc1cc(cc(-n3cnc(C)n3)c1OC)COCc1nc(ccc1F)N2` [Example 75, 18-Fluoro-10-methoxy-N-(methyl-d3)-11-(3-methyl-1H-1,2,4-triazol-1-yl)-15-oxa-2,4,5,8,21-pentaazatetracyclo[15.3.1.1^{3,7}.1^{9,13}]tricosa-1(20),3,5,7(23),9(22),10,12,17(21),18-nonaene-6-carboxamide], for which the GI50 in data set [1] was 108 nM. The microsomal CLint at 1 μM in data set [2] (setting [3]) is 37.7 µL/min/mg; in data set [2] (setting [5]), 21.8 µL/min/mg; in data set [2] (setting [7]) it was 22.6 µL/min/mg. Moreover, the half-life at 1 μM in data set [2] (setting [4]) worked out at 36.8 min; in data set [2] (setting [6]), 63.6 min; in data set [2] (setting [8]), 61.2 min.

For `[2H]C([2H])([2H])NC(=O)c1cnc2nc1Nc1cc(cc(-c3ncn(C)n3)c1OC)COCc1cc(ccc1F)N2` [Example 76, 18-Fluoro-10-methoxy-N-(methyl-d3)-11-(1-methyl-1H-1,2,4-triazol-3-yl)-15-oxa-2,4,8,23-tetraazatetracyclo[15.3.1.1^{3,7}.1^{9,13}]tricosa-1(20),3,5,7(23),9(22),10,12,17(21),18-nonaene-6-carboxamide], in data set [1], the GI50 was found to be 58.7 nM. Further, the microsomal CLint at 1 μM in data set [2] (setting [3]) came out at 12.3 µL/min/mg; in data set [2] (setting [5]), 20.5 µL/min/mg; in data set [2] (setting [7]), 19.6 µL/min/mg. The half-life at 1 μM in data set [2] (setting [4]) is 113 min; in data set [2] (setting [6]) it was 67.5 min; in data set [2] (setting [8]) it was 70.7 min.

Take `[2H]C([2H])([2H])NC(=O)c1cnc2cc1Nc1cc(cc(-c3ncn(C)n3)c1OC)COCc1cc(F)cc(n1)N2` [Example 77, 19-Fluoro-10-methoxy-N-(methyl-d3)-11-(1-methyl-1H-1,2,4-triazol-3-yl)-15-oxa-2,4,8,21-tetraazatetracyclo[15.3.1.1^{3,7}.1^{9,13}]tricosa-1(21),3,5,7(23),9(22),10,12,17,19-nonaene-6-carboxamide]: in data set [1], the GI50 was found to be 61.1 nM. The microsomal CLint at 1 μM in data set [2] (setting [3]) came to 15.4 µL/min/mg; in data set [2] (setting [5]) it was 4.59 µL/min/mg; in data set [2] (setting [7]) it was 12.2 µL/min/mg. Also, the half-life at 1 μM in data set [2] (setting [4]) worked out at 90.2 min; in data set [2] (setting [6]), 302 min; in data set [2] (setting [8]) it was 114 min.
